# Key:
# Phyllotreta striolata = assay: Canola foliar treatment, striped flea beetle mortality; assay type: in vivo
# Procedure: 1. Canola-Striped Flea Beetle, Phyllotreta striolata:
# Canola foliar treatment: Before application, construction paper was placed at the base of each plant to catch spray solution and therefore preventing beetle contact with contaminated soil and pots (allowing only the plants to be treated). Canola seedlings were treated at the first true leaf stage in a spray chamber at 300 L/ha with a three nozzle (TX-6) flat boom. Plants were allowed to dry, paper was removed, and plants were transferred to a greenhouse to hold over night. At infest, three plants (replicates) per treatment were placed into a bucket. Twenty adult flea beetles (mix sex) were aspirated into a vial and placed in the center of the bucket. The container was closed and placed into a Percival at 25 C 50% RH. Mortality evaluation was made on 6 DAI.
# Meligethes aeneus = assay: Oilseed rape inflorescence dip (foliar application), pollen beetle control; assay type: in vivo
# Procedure: 2. Oilseed Rape—Pollen Beetle, Meligethes aeneus:
# Foliar application: Test units consisted of a plastic cup with a hole in the bottom and a glass vial below that hole, containing irrigation water. Oil seed rape inflorescences were dipped into the treatment solutions and after drying placed inside the plastic cups. Each cup was sealed with a perforated, transparent lid. Ten adult pollen beetles, field collected, were added to each cup. Each treatment was replicated three times. Pollen beetle survival was assessed 3 days after application.
smiles,measurement,setting,value
C[n+]1c([O-])c(-c2ccccc2)c(=O)n2c1SC[C@@H]2c1cnc(Cl)s1 [Compound I-R-1],mortality at 600 ppm,"Phyllotreta striolata; Phyllotreta striolata, in Brassica napus, 600 ppm, foliar spray 300 L/ha on canola seedlings at first true leaf, adult flea beetles, evaluation 6 DAI",≥ 65%
same,flea beetle control (summary in words),"Phyllotreta striolata; canola foliar treatment, Table 1",good flea beetle control
same,Percent control (%) A03,"Meligethes aeneus; 72 g ai/ha, oil seed rape inflorescences dipped, field collected adult pollen beetles, assessed 3 days after application",47.8 a %
same,efficacy against the adults of pollen beetle (summary in words),Meligethes aeneus; foliar application,good efficacy
